System: MK-801-induced hyperlocomotion in C57BL/6 mice
Assay: Open field, MK-801-induced hyperlocomotion
Format: in vivo
Settings: for Effect on MK-801 induced hyperlocomotion (open field): MK-801 0.2 mg/kg i.p., mice; for Effect on MK-801-induced hyperlocomotion (FIG. 1): different dosages, compared to the MK-801 group
From the text: The NMDA-receptor antagonist MK-801-induced negative or cognitive deficits in C57BL/6 mice were in a well-established drug-induced schizophrenia mouse model and as a useful pharmacological animal model to identify if the RS-D7, its analog and its prodrug improve the symptoms through the NMDA receptor.
All wild-type (WT) mice used in this study were backcrossed onto a C57BL/6J background from the Laboratory Animal Center of National Taiwan University Hospital, and all behavioral examinations were conducted in WT mice. For acclimatizing to laboratory conditions, the mice were allowed free access to food and water and were housed in groups with a 12 hours light-dark cycle in a temperature and humidity controlled room of the Psychology Department, National Taiwan University. All animals within the age of 3 months were housed individually one week before experiment testing with food and water available ad libitum. In the beginning of the experiments, the mice were handled and weighted daily at least 1 week before the behavioral experiments. The entire animal procedures were performed according to protocols approved by the Animal Care and Use Committee established by the National Taiwan University.
MK-801 was dissolved in saline and administered at a volume of 0.01 ml/g body weight. RS-D7, Drug 12083 (analog of RS-D7) and was freshly dissolved in 1% CMC to the concentration of 2 mg/ml before usage. Prodrug 28095 was freshly dissolved in NMP:HP-beta-CD:H2O (5:25:70) to the concentration of 2 mg/ml before usage. All animals were given vehicle (saline) or MK-801 (0.2 mg/kg, i.p.) 25 minutes before the behavioral experiments. Both vehicle (1% CMC or NMP:HP-beta-CD:H2O) and experimental groups (RS-D7, Drug 12083 or Prodrug 28095) were treated after 5 minutes MK-801 administration with the appropriate dose via P.O. injections (at a volume of 0.01 ml/g body weight).
For investigating the treatment effect of RS-D7 for negative and cognitive symptoms, a series of three behavioral tests (run from the first to the third week), which included open field, sucrose preference test and prepulse inhibition were performed in sequence with a 1-week interval between tests.
To assess spontaneous locomotor activity, each subject was placed into the center of an open-field apparatus (25.40*25.40*40.64 cm^3, Coulbourn Instruments, Whitehall, Pa., USA) under dim lighting condition (60 lx). Motor activity parameters (including total travel distance and travel distance per 10 minutes) were monitored and recorded over a 60 minutes period by using Smart video tracking software (Panlab, Harvard apparatus, US). For comparing the treatment effects of different treatment groups, the percentage change of rescue effect on MK-801-induced hyperlocomotion was calculated using the following formula: %=(rescue effect of drug−MK-801 effect)×100%/MK-801 effect.

## COc1c(C)cnc(C[S+]([O-])c2nc3ccc(O)cc3[nH]2)c1C (stereo not shown) [RS-D7, reference compound]
100 mg/kg P.O.
  Effect on MK-801 induced hyperlocomotion (open field): did not display the treatment effect
200 mg/kg P.O.
  Effect on MK-801 induced hyperlocomotion (open field): rescued the MK-801 induced hyperlocomotion
400 mg/kg P.O.
  Effect on MK-801 induced hyperlocomotion (open field): rescued the MK-801 induced hyperlocomotion
  Effect on MK-801-induced hyperlocomotion (FIG. 1): can rescue the MK-801-induced hyperlocomotion

## COc1c(C)cnc(CSc2nc3cc(C(=O)O)ccc3n2CCC2=CCCCC2)c1C [compound 12083, 1-(2-(cyclohex-1-en-1-yl)ethyl)-2-(((4-methoxy-3,5-dimethylpyridin-2-yl)methyl)thio)-1H-benzo[d]imidazole-5-carboxylic acid]
20 mg/kg P.O.
  Effect on MK-801 induced hyperlocomotion (open field): alleviated MK-801 induced hyperlocomotion deficits
40 mg/kg P.O.
  Effect on MK-801 induced hyperlocomotion (open field): alleviated MK-801 induced hyperlocomotion deficits
  Effect on MK-801-induced hyperlocomotion (FIG. 1): can rescue the MK-801-induced hyperlocomotion

From patent US11370775B2, “Substituted benzimidazole derivatives as D-amino acid oxidase (DAAO) inhibitors” (NATIONAL TAIWAN UNIVERSITY, priority 2016, dated 2022)
